Where “and” joins values, the source holds several entries; their conditions need not be identical. Equal values may be shown once.
Experiments:
[1] = test system: Klebsiella pneumoniae ATCC 10031; experiment: MIC of DexOx-antibiotic conjugates and free drugs; format: cell-based; settings: K. pneumoniae
Procedure: (§1) To evaluate the antibacterial activity of DexOx-Amp, DexOx-Van and DexOx-Gen, the minimal inhibitory concentration (MIC) was determined for each of the conjugates and compared with each of MIC values obtained for Amp, Van and Gen. The tests were performed against 5×10^5 cells/mL (in 0.2 mL of medium) of Staphylococcus aureus ATCC 6538 (S. aureus), Pseudomonas aeruginosa ATCC 15442 (P. aeruginosa), Klebsiella pneumoniae ATCC 10031 (K. pneumoniae) or Escherichia coli ATCC 25922 (E. coli), with concentrations of the drug between 0 and 120 μg/mL. The microorganisms were incubated at 37° C. for 18 h, and the absorbance at 600 nm was monitored every 30 min.

[2] = test system: Pseudomonas aeruginosa ATCC 15442; experiment: MIC of DexOx-antibiotic conjugates and free drugs; format: cell-based; settings: P. aeruginosa
Procedure: as §1

[3] = The Merck Index 1989; cited from earlier work
[4] = test system: Candida albicans; experiment: MIC of AmB and DexOx-AmB conjugates (NCCLS M27A2E); format: cell-based; settings: 48 hours
Excerpt: The “minimal inhibitory concentration” or “MIC” is defined as the lowest drug concentration that results in complete inhibition of visible growth of a microorganism.

[5] = test system: C. albicans; experiment: Spectrum of antifungal activity, MIC after 8 hours; format: cell-based; settings: formulation
[6] = test system: C. glabrata; experiment: Spectrum of antifungal activity, MIC after 8 hours; format: cell-based; settings: formulation
Procedure: (§2) In order to determine the spectrum of antifungal activity of the nanoparticles functionalized with amphotericin B, they were tested against four strains of Candida, namely: C parapsilosis, C krusei, C glabrata, and C tropicalis. The MIC values were determined after 8 hours of incubation with AmB, DexOx-AmB conjugate, unconjugated silica nanoparticles, and silica nanoparticles functionalized with DexOx-AmB.

[7] = test system: C. tropicalis; experiment: Spectrum of antifungal activity, MIC after 8 hours; format: cell-based; settings: formulation
Procedure: as §2

[8] = test system: C. krusei; experiment: Spectrum of antifungal activity, MIC after 8 hours; format: cell-based; settings: formulation
Procedure: as §2

[9] = test system: C. parapsilosis; experiment: Spectrum of antifungal activity, MIC after 8 hours; format: cell-based; settings: formulation
Procedure: as §2

With gentamicin the “MIC free drug (μg/mL)” value [1] was “MIC < 2 μg/mL” and the “MIC free drug (μg/mL)” value [2] was “MIC < 2 μg/mL”.

`CC1(C)S[C@@H]2[C@H](NC(=O)[C@H](N)c3ccccc3)C(=O)N2[C@H]1C(=O)O` [Amp, ampicillin] showed an MIC ([1]; Klebsiella pneumoniae, ATCC10031, free drug) of 20 to 40 mg/L and an MIC ([2]; Pseudomonas aeruginosa, ATCC15442, free drug) of over 120 mg/L.

In the case of amphotericin B [AmB], the water solubility limit [3] is listed as 0.1 mg/mL, the “MIC (μg of conjugate/ml)” value ([4]; 30° C., n=6) is listed as 0.9 ± 0.2 μg of conjugate/ml and the MIC ([4]; unconjugated (soluble) AmB) is listed as 0.9 mg/L and 0.9 ± 0.2 mg/L. The “Minimum Inhibitory Concentration (MIC)” value [5] was 0.3, the “Minimum Inhibitory Concentration (MIC)” value [6] was 0.03 and the “Minimum Inhibitory Concentration (MIC)” value [7] was 0.08. The “Minimum Inhibitory Concentration (MIC)” value [8] was 0.1 and the “Minimum Inhibitory Concentration (MIC)” value [9] was 0.3.
